According to patent publication US12329852B2, “Sustained-release 9-cis retinoic acid implantable drug delivery pellets for the prevention of postsurgical edema and lymphedema” (UNIVERSITY OF SOUTHERN CALIFORNIA, priority 2019, dated 2025):

Key:
tail lymphedema = assay: Oral administration, tail lymphedema, gross tail volume; format: in vivo, BALB/c mice; settings: oral gavage in sunflower oil for 6 weeks
Experimental: Oral administration experiments were performed on 30 adult BALB/c mice, 12 to 14 weeks old, and weighing between 21 and 30 g. Surgical excision of lymphatic vessels at 20-mm from the base of the tail was performed in order to induce secondary lymphedema. Mice receive 9-cis RA dissolved in sunflower oil via oral gavage for 6 weeks in accordance to the dosing regimes in Table 3.

diaphragmatic lymphatics = assay: India ink staining of the diaphragm; format: in vivo, BALB/c mice; settings: 0.08 mg/kg daily i.p.
Experimental: On post-operative day 47, each animal was intraperitoneally injected with 5 cc of India Ink which was diluted 2-folds with distilled water. Ten minutes after the injection of India ink, the animal was euthanized and the diaphragms were harvested in their entirety. The specimens were then rinsed with running tap water for 1 minute and mounted on the stage of a dissecting microscope equipped with a digital camera. The whole-mount specimen, exclusive of the central tendon, was then analyzed for the passive lymphatic absorption of India ink utilizing the percent stained area on ImageJ.

hind limb lymphedema [1] = assay: ICG lymphography of hind limb, lymphatic clearance (implantable pellet); format: in vivo, mouse; settings: postoperative week 6, 3 to 144 hours after ICG injection
Experimental: At postoperative week 6, lymphatic clearance was measured using indocyanine green (ICG) lymphography to compare lymphatic function between the treatment and placebo groups. After inducing anesthesia via isoflurane inhalation, a sub-microliter injection system syringe was used to intradermally inject 2 uL of ICG on the dorsal aspect of the second and fifth paw digits. ICG lymphography images were recorded at 1, 3, 6, 12, 24, 48, 72, 96, and 144 hours post-injection. The fluorescence intensity of the lymphography images was quantified at each post-injection time point using ImageJ pixel intensity analysis (National Institutes of Health, Bethesda, MD).
Indocyanine green (ICG) lymphography is a well-established procedure used in clinics by healthcare providers to visualize lymphatic vessels in real-time for the purposes of diagnosis or preoperative planning. When ICG is injected intradermally, it is preferentially picked up and cleared by the lymphatic system. This imaging modality provides rapid visualization of lymphatic vessels and measures lymphatic clearance, acting as a surrogate for lymphatic function. […] Thus, at postoperative week 6 and prior to euthanasia, lymphatic clearance were monitored by quantifying the change in dermal fluorescence of mouse hind limbs injected with ICG.

hind limb lymphedema [2] = assay: Hind limb lymphedema model, paw thickness (implantable pellet); format: in vivo, mouse; settings: for paw swelling, mean difference compared to control animals: implantable pellet 100 μg 9-cis RA, 30-day release
Experimental: All experiments were performed in accordance with the statutes from The Guide for the Care and Use of Laboratory Animals (National Research Council, 8th ed, 2011), the Animal Welfare Act, and other Federal regulations. The was approved by the University of Southern California Institutional Animal Care and Use Committee. Male and female Prox-1 green fluorescent protein (GFP) transgenic mice, 12-16 weeks old, weighing 20-30 g were bred within the University of Southern California animal facility. This GFP-expressing lymphatic reporter mouse was used because it conveniently allowed for the visualization of lymphatic vessels and other Prox1-expressing tissue under fluorescence microscopy, and facilitated the immunohistochemical staining of lymphatic vessels using anti-GFP primary antibody.
Under isoflurane-inhaled anesthesia, the lymphatic injury protocol was used on all experimental mice to induce hind limb lymphedema. This consisted of hind limb lymph node dissection followed by adjuvant radiation therapy. Using a dissecting microscope, a circumferential intradermal incision was made around the thigh, after which the ipsilateral inguinal fat pad, containing the inguinal lymph nodes, and ipsilateral popliteal lymph node were removed, as previously described. Visualization of the inguinal and popliteal lymphatics was facilitated by the injection of methylene blue dye on the dorsum of the paw and by the use of a green fluorescent microscope. Skin sutures were placed in 7-8 mm gaps to reinforce discontinuity of dermal lymphatics. The surgical area was then irradiated using a clinically relevant dose of 27.5 Gy radiation delivered by an XRad 320 device over a period of 5 days (550 cGy per day), which is the human equivalent dose for mouse.
Pellets were placed within the surgical wound intraoperatively and sutured in place to the adductor muscles of the thigh. Treatment pellets were custom-manufactured by Innovative Research of America (Sarasota, FL) to contain 100 μg of 9-cis RA, released over a period of 30 days using a matrix-driven delivery system. The carrier-binder excipients of the pellet matrix were synthetic and non-toxic, and included cholesterol, lactose, celluloses, phosphates, and stearates.
Prior to surgery, all animals were sex-, age-, and weight-matched to eliminate confounding variables. Paw thickness, the primary outcome, was measured weekly using electronic calipers for a total of 6 weeks. Paw thickness was normalized for each animal by calculating percent change relative to the unaffected paw. Hind limbs were photographed using a Nikon D5000 digital SLR flash camera using fixed distances, focal length, background, and positioning.

CC1=C(/C=C/C(C)=C\C=C\C(C)=C\C(=O)O)C(C)(C)CCC1 [9-cis RA, 9-cis retinoic acid]
change in gross tail volume (tail lymphedema; high dose 30 mg/kg): decreases change in gross tail volume | change in gross tail volume (tail lymphedema; low dose 10 mg/kg, 10 mg/kg): decreases change in gross tail volume | change in gross tail volume (tail lymphedema; low dose 10 mg/kg, listed as 9-cis retinoic acid, 10 mg/kg): most effective for preventing post-surgical tail lymphedema | percent stained area of diaphragms (India ink) vs vehicle control (diaphragmatic lymphatics; 14-day group): marginal significance | percent stained area of diaphragms (India ink) vs vehicle control (diaphragmatic lymphatics; groups other than 14-day): essentially no differences | lymphatic drainage as change in ICG fluorescence compared to control (hind limb lymphedema [1]): significantly faster lymphatic drainage | paw swelling, mean difference compared to control animals (hind limb lymphedema [2]; postoperative week 3): 7% | paw swelling, mean difference compared to control animals (hind limb lymphedema [2]; postoperative week 4): 12% | paw swelling, mean difference compared to control animals (hind limb lymphedema [2]; postoperative week 5): 9% | paw swelling, mean difference compared to control animals (hind limb lymphedema [2]; postoperative week 6): 11% | change in paw swelling/thickness within the treatment group over time (hind limb lymphedema [2]; implantable pellet, between time points over 6 weeks): no significant differences in paw swelling are observed between time points
